The values below come from patent US7144452B2, “Ink jet black ink, ink set, ink jet recording method, ink cartridge, recording unit, and ink jet recording apparatus” (Canon Kabushiki Kaisha, priority 2004, dated 2006).

The first series is described as follows: Relative permittivity of water-soluble organic solvent (LCR meter). The series is classed as physicochemical.
Conditions: not given
How it is done:
The relative permittivity of the water-soluble organic solvent of various types was measured with LCR Meter 4284A (manufactured by Hewlett-Packard Japan, Ltd.) under conditions of a room temperature of 20° C. and a measurement frequency of 1 MHz.
Turning to `OCCCCO` [1,4-Butanediol], the “Relative permittivity (measurement frequency: 1 MHz)” value (“Relative permittivity” for short) turned out to be 31.3.

In the case of `OCCO` [Ethylene glycol], the “Relative permittivity” value turned out to be 38.1.

The series is the same for the next values; noted with them: room temperature of 20° C., 1 MHz.
On to `OCCCCC(O)CO` (stereo not drawn) [1,2,6-Hexanetriol], for which the “Relative permittivity” value is reported as 28.5. In the case of `CC(O)CO` (stereo not drawn) [1,2-Propanediol], the “Relative permittivity” value worked out at 32.2. Still for that read-out and setting: in the case of `O=C1CCCN1` [2-Pyrrolidone] it was 27.5.

Take `OCC(O)CO` [Glycerol]: the “Relative permittivity” value came to 43.0.
